{"source": "paper PMC9533460", "about": "(RSC Chemical Biology, 2022)", "key": {"[1]": {"biological_target": "T1, homoserine-dehydrogenase (HD) (Pseudomonas alvandae, UniProt P0DXC5)", "T1 sequence (P0DXC5 1-352)": "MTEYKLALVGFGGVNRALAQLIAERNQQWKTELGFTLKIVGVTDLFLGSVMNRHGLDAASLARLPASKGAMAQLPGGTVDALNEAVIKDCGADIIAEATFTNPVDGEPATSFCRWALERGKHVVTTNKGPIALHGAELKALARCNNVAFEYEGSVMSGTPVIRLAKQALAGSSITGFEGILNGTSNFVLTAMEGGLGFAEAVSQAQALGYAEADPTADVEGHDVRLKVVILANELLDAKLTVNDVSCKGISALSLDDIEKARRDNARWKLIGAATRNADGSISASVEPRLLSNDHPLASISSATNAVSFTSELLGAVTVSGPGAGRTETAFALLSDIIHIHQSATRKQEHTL", "experiment": "NADH formation", "format": "biochemical", "settings": "NAD+ as co-substrate"}, "[2]": {"biological_target": "T2, ammonium–aspartate–lyase (AAL) (Pseudomonas alvandae, UniProt P0DXC8)", "T2 sequence (P0DXC8 1-474)": "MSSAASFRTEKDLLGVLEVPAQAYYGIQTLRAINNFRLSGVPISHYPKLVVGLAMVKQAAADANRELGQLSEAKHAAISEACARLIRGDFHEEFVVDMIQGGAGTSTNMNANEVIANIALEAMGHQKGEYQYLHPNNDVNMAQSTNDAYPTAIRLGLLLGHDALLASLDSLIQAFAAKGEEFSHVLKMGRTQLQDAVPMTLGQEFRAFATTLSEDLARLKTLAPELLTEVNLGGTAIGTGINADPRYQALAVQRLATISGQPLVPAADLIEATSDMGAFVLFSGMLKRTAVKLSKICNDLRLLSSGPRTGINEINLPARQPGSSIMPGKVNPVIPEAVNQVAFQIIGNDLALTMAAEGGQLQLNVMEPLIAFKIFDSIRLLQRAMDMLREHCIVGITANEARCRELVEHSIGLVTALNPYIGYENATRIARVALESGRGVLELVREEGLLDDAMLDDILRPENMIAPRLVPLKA", "experiment": "1H-NMR of coupled reaction homoserine to fumarate", "format": "biochemical", "settings": "aspartate formed in situ by HD with AH or AC"}, "[3]": {"biological_target": "T3, canavanine-γ-lyase (CanγL); aminotransferase AT (Pseudomonas alvandae, UniProt P0DXC4)", "T3 sequence (P0DXC4 1-400)": "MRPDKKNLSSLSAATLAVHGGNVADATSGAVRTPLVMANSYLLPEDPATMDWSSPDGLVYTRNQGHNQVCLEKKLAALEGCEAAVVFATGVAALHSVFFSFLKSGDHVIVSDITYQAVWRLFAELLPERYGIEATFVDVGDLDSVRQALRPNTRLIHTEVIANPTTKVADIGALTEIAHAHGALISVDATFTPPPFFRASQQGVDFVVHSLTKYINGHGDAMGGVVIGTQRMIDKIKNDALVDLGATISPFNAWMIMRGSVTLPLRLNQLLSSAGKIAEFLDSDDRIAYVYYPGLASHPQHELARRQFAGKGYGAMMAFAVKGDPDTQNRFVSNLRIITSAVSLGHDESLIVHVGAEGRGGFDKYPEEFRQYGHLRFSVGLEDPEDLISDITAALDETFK", "experiment": "UV/Vis spectra of the enzyme reaction", "format": "binding", "settings": "covalent (internal aldimine with K213); canavanine as substrate"}, "[4]": {"biological_target": "T1, homoserine-dehydrogenase (HD)", "experiment": "NADH formation", "format": "biochemical", "settings": "homoserine as co-substrate"}, "[5]": {"biological_target": "T4, aldehyde-dehydrogenase 1 (AH) (Pseudomonas alvandae, UniProt P0DXC7)", "T4 sequence (P0DXC7 1-470)": "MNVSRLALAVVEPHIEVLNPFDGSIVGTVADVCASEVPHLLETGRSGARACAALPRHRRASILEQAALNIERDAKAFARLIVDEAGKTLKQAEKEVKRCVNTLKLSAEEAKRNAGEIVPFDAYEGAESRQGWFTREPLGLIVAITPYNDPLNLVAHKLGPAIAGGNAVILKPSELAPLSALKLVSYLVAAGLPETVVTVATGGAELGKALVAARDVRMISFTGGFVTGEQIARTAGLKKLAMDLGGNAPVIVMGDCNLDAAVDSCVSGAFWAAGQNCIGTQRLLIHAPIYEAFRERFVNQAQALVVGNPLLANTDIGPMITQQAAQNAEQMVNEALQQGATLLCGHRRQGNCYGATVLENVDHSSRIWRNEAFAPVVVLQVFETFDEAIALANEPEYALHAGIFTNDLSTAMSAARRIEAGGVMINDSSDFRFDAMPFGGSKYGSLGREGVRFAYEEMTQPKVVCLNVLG", "experiment": "1H-NMR of coupled reaction homoserine to fumarate", "format": "biochemical", "settings": "aspartate semialdehyde formed in situ from homoserine by HD; with AAL"}, "[6]": {"biological_target": "T5, aldehyde-dehydrogenase 2 (AC) (Pseudomonas alvandae, UniProt P0DXC6)", "T5 sequence (P0DXC6 1-485)": "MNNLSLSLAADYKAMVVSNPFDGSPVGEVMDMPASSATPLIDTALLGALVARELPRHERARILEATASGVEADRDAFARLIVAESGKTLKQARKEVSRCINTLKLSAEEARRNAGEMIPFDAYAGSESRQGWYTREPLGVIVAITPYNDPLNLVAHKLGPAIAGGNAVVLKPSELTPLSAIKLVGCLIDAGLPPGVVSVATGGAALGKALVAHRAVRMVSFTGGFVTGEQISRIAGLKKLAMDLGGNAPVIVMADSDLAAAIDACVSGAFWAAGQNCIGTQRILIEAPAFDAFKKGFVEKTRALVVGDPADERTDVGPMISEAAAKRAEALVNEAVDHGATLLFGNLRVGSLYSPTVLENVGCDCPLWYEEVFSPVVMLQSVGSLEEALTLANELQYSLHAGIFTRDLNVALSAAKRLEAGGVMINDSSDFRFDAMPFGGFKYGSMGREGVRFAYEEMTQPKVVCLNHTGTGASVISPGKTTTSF", "experiment": "1H-NMR of coupled reaction homoserine to fumarate", "format": "biochemical", "settings": "aspartate semialdehyde formed in situ from homoserine by HD; with AAL"}}, "data": [{"smiles": "N[C@@H](CCO)C(=O)O", "note": "[homoserine]", "values": [{"measurement": "NADH formation; 1H-NMR of the coupled reaction", "setting": "[1]", "value": "homoserine-dehydrogenase (HD) which catalyzes the conversion of homoserine and NAD+"}]}, {"smiles": "N[C@@H](CC(=O)O)C(=O)O", "note": "[aspartate]", "values": [{"measurement": "1H-NMR of coupled reaction homoserine to fumarate", "setting": "[2]", "value": "AH or AC and AAL the formation of fumarate via aspartate was observed"}]}, {"smiles": "Cc1ncc(COP(=O)(O)O)c(C=O)c1O", "note": "[PLP]", "values": [{"measurement": "UV/Vis spectra of the enzyme reaction; K213A comparison", "setting": "[3]", "value": "Time-dependent increase of presumed aldimine and quinonoid peaks were observed for the wt enzyme"}]}, {"smiles": "NC(=O)c1ccc[n+]([C@@H]2O[C@H](COP(=O)(O)OP(=O)(O)OC[C@H]3O[C@@H](n4cnc5c(N)ncnc54)[C@H](O)[C@@H]3O)[C@@H](O)[C@H]2O)c1", "note": "[NAD+]", "values": [{"measurement": "NADH formation", "setting": "[4]", "value": "the reaction of HD was only dependent on the cofactor NAD^+"}]}, {"smiles": "N[C@@H](CC=O)C(=O)O", "note": "[aspartate semialdehyde]", "values": [{"measurement": "1H-NMR of coupled reaction homoserine to fumarate", "setting": "[5]", "value": "purified HD with either of the two aldehyde-dehydrogenases AH or AC and AAL"}, {"measurement": "1H-NMR of coupled reaction homoserine to fumarate", "setting": "[6]", "value": "purified HD with either of the two aldehyde-dehydrogenases AH or AC and AAL"}]}]}
